From US20260209180A1, “PROTEASE INHIBITORS FOR TREATING OR PREVENTING CORONAVIRUS INFECTION” (Merck Sharp & Dohme LLC, priority 2023, published 2026)

Biological target: SARS2 coronavirus 3CL protease (Severe acute respiratory syndrome coronavirus 2, UniProt P0DTD1)
Assay: SARS2 Coronavirus 3CL Protease Assay (FRET)
Type: biochemical
Conditions: 5 nM protease pre-incubated with compound 30 minutes; 15 uM peptide substrate; 4 h room temperature; read-out: FRET Potency (nM); IC50 values in the SARS2 3CLPro FRET assay
Protocol: The enzymatic activity of SARS2 coronavirus 3CL protease was determined in a FRET (fluorescence resonance energy transfer)-based assay measuring the cleavage of a peptide substrate by recombinantly expressed and purified enzyme. Cleavage of the peptide SEQ ID NO: 1 (CPC Scientific) by SARS2 3CL protease was measured in reaction buffer (50 mM Hepes pH 7.5, 0.01% Triton X-100, 0.01% BSA, 2 mM DTT). […] Room temperature reactions (4 h) were quenched by addition of a high dose of inhibitor and read on an appropriate plate reader (excitation wavelength=495 nm, emission wavelength=520 nm). Data were analyzed by a standard 4 parameter fit to determine IC50 values.

Row | SMILES | IC50 [nM]
1 | CNC(=O)C(=O)[C@H](CCC(C)(F)F)NC(=O)c1cc(Cl)ccc1NC(=O)OC1CC1 [Example 59, cyclopropyl N-[4-chloro-2-[[(1S)-4,4-difluoro-1-[2-(mcthylamino)-2-oxo-acetyl]pentyl]carbamoyl]phenyl]carbamate] | 13.1
2 | CNC(=O)C(=O)[C@H](CCC(C)(F)F)NC(=O)c1cc(Cl)ccc1NC(=O)[C@H](C)OC [Example 60, 5-chloro-N-[(1S)-4,4-difluoro-1-[2-(methylamino)-2-oxo-acetyl]pentyl]-2-[[(2S)-2-methoxypropanoyl]amino] benzamide] | 9.4
